Reference: patent publication EP1203584A1 (priority 2000, dated 2002)

Tests used:
Assay type in all cases: in vivo, Male Wistar rats
[1] = test system: immunoreactivity of the neuronal acetylcholine in the neurones of the magnocellular nucleus basalis (MNB) and in the corpus striatum; assay: Immunoreactivity of neuronal acetylcholine in MNB and corpus striatum neurones
[2] = biological target: T1, acetylcholinesterase (AChE) (Rattus norvegicus, UniProt P37136); assay: Activity of acetylcholinesterase in treated rats; conditions: choline alfoscerate alone, 150 mg/kg
T1 construct: Male Wistar rats were divided into 5 groups; from tissue; host or cells: Male Wistar rats
T1 sequence (P37136 32-614): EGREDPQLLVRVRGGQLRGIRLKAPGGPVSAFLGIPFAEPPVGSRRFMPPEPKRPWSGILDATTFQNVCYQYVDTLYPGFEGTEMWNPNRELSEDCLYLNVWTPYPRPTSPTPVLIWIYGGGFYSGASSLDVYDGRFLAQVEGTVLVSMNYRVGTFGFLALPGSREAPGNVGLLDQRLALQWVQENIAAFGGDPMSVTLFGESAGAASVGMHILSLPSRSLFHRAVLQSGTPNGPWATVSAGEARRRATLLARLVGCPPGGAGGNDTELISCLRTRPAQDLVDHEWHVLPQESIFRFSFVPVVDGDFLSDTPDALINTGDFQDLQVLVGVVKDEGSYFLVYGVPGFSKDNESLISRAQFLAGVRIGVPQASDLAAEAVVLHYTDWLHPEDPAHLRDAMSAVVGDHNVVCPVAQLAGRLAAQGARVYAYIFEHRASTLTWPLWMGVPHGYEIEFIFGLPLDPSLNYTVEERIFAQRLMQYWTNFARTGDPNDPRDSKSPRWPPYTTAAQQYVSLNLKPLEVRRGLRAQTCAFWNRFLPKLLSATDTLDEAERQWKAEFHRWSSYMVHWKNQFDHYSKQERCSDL

[3] = test system: levels of acetylcholine in the cerebral cortex (frontal area), in the hippocampus and in the corpus striatum; assay: Levels of acetylcholine in rat brain areas after 1 week of treatment

Compound: C[N+](C)(C)CCOP(=O)([O-])OC[C@H](O)CO [choline alfoscerate]
- immunoreactivity of the acetylcholine ([1]; choline alfoscerate alone, 150 mg/kg, MNB neurones and interneurones of the corpus striatum, more marked in the MNB): increased in a similar fashion
- effect on the activity of the AChE [2]: did not show any effect
- release of acetylcholine ([3]; 150 mg/kg choline alfoscerate, hippocampus and corpus striatum, reason for the choice of dose): significantly increases
- increase in the levels of acetylcholine, compared with rivastigmine ([3]; choline alfoscerate alone versus rivastigmine 2.5 mg/kg, frontal cerebral cortex, hippocampus, corpus striatum): to the same extent as the dosage of the AchE inhibitor, rivastigmine
- increased the levels of acetylcholine ([3]; choline alfoscerate alone, 150 mg/kg intraperitoneal, 1 week): approximately 20%

Compound: CCN(C)C(=O)Oc1cccc([C@H](C)N(C)C)c1 [rivastigmine]
- immunoreactivity of the acetylcholine ([1]; rat, in vivo, 2.5 mg/kg): increased in a similar fashion
